Assay results from patent US20220008425A1, “Pharmaceutical Composition for Treating B-Cell Lymphoma” (FUNDAN UNIVERSITY SHANGHAI CANER CENTER, priority 2018, published 2022).
“Also recorded” adds a separate entry of the source.

Columns and labels:
[1] = system: CD20 and mCRPs (CD46, CD55, CD59) in RCHO-resistant LY8 cells; experiment: FACS analysis of membrane expression of CD46, CD55, CD59 and CD20; type: cell-based, human
Procedure: (§1) After being washed with PBS, cells were incubated with fluorescein-conjugated antibody for 30 minutes, followed by washing and resuspension of cells in PBS. Flow cytometry analysis was performed on a cytomics FC500 MPL instrument (Beckman Coulter, Inc., Brea, Calif.) and FlowJo software (Ashland, Inc., OR) was used for analysis. Cells were then sorted according to their relative fluorescence intensity by using a MoFlo XDP sorter (Beckman Coulter Inc., Brea, Calif.).

[2] = system: CD20 and mCRPs (CD46, CD55, CD59) in RCHO-resistant NU-DUL-1 cells; experiment: as above; type: cell-based, human
Procedure: as §1

[3] = system: AKT phosphorylation, SOX2, CDK6 and CSC-associated molecules in LY8-RCHO cells; experiment: Immunoblot analysis; type: cell-based, human
LY8-RCHO cells = experiment: Aldefluor analysis (ALDH1+ cells); type: cell-based, human
Procedure: (§2) ALDH1 is a selectable marker for a variety of normal and cancer stem cells, including hematopoietic stem cells. Therefore, we assessed the number of cancer stem cells in hematopoietic malignancies by detecting ALDH1 positive cells. As previously described, we used an ALDEFLUOR™ kit (StemCell Technologies, Vancouver, BC, CA) to detect populations with high ALDH1 activity. Briefly, 1×10^6 cells were suspended in 1 mL of assay buffer containing 1 μM of BAAA, a substrate of […]. Suspended cells were then equally divided into two samples, one as a negative control and the other as a test sample. To form the negative control, […] of DEAB, a specific ALDH inhibitor, was added to one equally-divided sample. Cells were then incubated at 37° C. for 30 minutes prior to flow cytometry analysis.

NU-DUL-1-RCHO cells = experiment: Aldefluor analysis (ALDH1+ cells); type: cell-based, human
Procedure: as §2

[4] = system: SOX2 in tumor tissues grown from LY8-RCHO-Luc cells; experiment: SOX2 immunohistochemical staining of tumor tissues from the transplantation model; type: in vivo, SCID mice; conditions: tumors from LY8-RCHO-Luc cells; compared with saline control
Excerpt: (§3) Construction of a transplantation model: we transduced LY8-RCHO cells and NU-DUL-1-RCHO cells with lentiviruses overexpressing the firefly luciferase gene to generate stable cells expressing firefly luciferase, referred to as LY8-RCHO-Luc cells and NU-DUL-1-RCHO-Luc cells, respectively. 8-week-old female SCID mice were purchased from SLAC (Shanghai laboratory animal center). The LY8-RCHO-Luc cells and NU-DUL-1-RCHO-Luc cells were resuspended in PBS prior to intraperitoneal injection of 1.5×10^7 cells per mouse. After intraperitoneal injection of the LY8-RCHO-Luc cells, mice were randomized into 6 groups (7 mice in every group) and given saline, R-CHOP, duvelisib, abemaciclib, R-CHOP+duvelisib, and R-CHOP+abemaciclib, respectively. Mice inoculated with the NU-DUL-1-RCHO-Luc cells were randomly divided into 6 groups (7 mice in every group), and were given saline, R-CHOP, duvelisib, AZD4547, R-CHOP+duvelisib, and R-CHOP+AZD4547, respectively. […] Tumor growth was monitored by bioluminescence at day 50 and day 90 after inoculation. For in vivo luminescence imaging, D-luciferin (Promega, Madison, Wis.) was intraperitoneally injected into mice (150 mg/kg). […] Luminescence images were captured with an exposure time of 30 seconds and the signal intensity of the tumor was measured by using Bruker MI software. The survival time of each mouse was recorded. […]
(§4) Tumor tissues from patients or animal models were fixed with 4% formalin, embedded in paraffin and sectioned. […] Immunoreactivity was then detected by using a GTVision III immunohistochemical detection kit (GK500705; Gene Tech Inc., Shanghai, China) according to its instructions. Quantitative scoring of immunostaining for SOX2, p-AKT, CDK6, FGFR1 and FGFR2 was performed on three independent sections under the microscope, according to the formula: score=3 (strong positive)×percentage+2 (medium positive)×percentage+1 (weak positive)×percentage+0 (negative)×percentage.

[5] = system: SOX2 in tumor tissues grown from NU-DUL-1-RCHO-Luc cells; experiment: as above; type: in vivo, SCID mice; conditions: tumors from NU-DUL-1-RCHO-Luc cells; compared with saline control
Excerpt: as §3, §4

## C[C@H](Nc1ncnc2[nH]cnc12)c1cc2cccc(Cl)c2c(=O)n1-c1ccccc1 [duvelisib]
[1]
  membrane expression of CD20: significantly reduced
  membrane expression of the other three mCRPs (CD46, CD55, CD59): the other three mCRPs did not
[2]
  membrane expression of CD20: significantly reduced
  membrane expression of the other three mCRPs (CD46, CD55, CD59): the other three mCRPs did not
[3]
  AKT phosphorylation and expression of SOX2 and CDK6: reduces the expression of SOX2 and CDK6 by inhibiting AKT phosphorylation; also recorded: prevented phosphorylation of AKT and induced degradation of SOX2, thereby reducing expression of CDK6
  levels of CSC-associated molecules (OCT4, NANOG, KLF4, c-MYC, CD34, CD133): significantly reduced levels of CSC-associated molecules in the RCHO-resistant cells
LY8-RCHO cells
  proportion of ALDH1+ cells (CSCs): significantly reduced ALDH1+ subpopulations in LY8-RCHO and NU-DUL-1-RCHO cells
NU-DUL-1-RCHO cells
  proportion of ALDH1+ cells (CSCs): significantly reduced ALDH1+ subpopulations in LY8-RCHO and NU-DUL-1-RCHO cells
[4]
  SOX2 expression level in tumor tissue (IHC): significantly reduced the expression levels of SOX2 compared with a saline control
[5]
  SOX2 expression level in tumor tissue (IHC): significantly reduced the expression levels of SOX2 compared with a saline control
